Reference: patent publication US8158560B2, “Insecticidal arylpyrroline compounds” (Bayer CropScience AG, priority 2009, dated 2012)
Values joined by “and” are separate entries in the source; they are usually repeats but may differ in a detail not shown here. Identical values can stand only once.

Assays:
Type in all cases: in vivo
[1] = tested on: Myzus persicae-resistant strain, mixed population; test: Myzus persicae spray test (MYZUPE); conditions: 4 ppm, 6 dat
Experimental: Myzus persicae—Spray Test (MYZUPE)
Insect: Myzus persicae-resistant strain, mixed population
Plant: Eggplant seedling (Solanum melongena var. Senryo 2gou) 2 leaf age (4-5 weeks after sowing), transplanted into vinyl pots of 60 mm diameter
Solvent pre-mixture: Sorpol® SD: Sorpol® BDB:Dimethylformamide=3:3:14; 10 mg a.i. is solved with 0.05 ml solvent pre-mixture. Water for dilution contains RME and AS (1000 ppm each) or 0.1% of spreader. Solutions are diluted at the rate of 1:5 for limit concentration determination.
Procedure: 1 day before treatment aphids are inoculated onto the testing plants, about 50 aphids per leaf, 100 for 1 pot. A paper label is placed on each pot. Solutions are sprayed directly onto both insects and plants. After drying pots are placed in the greenhouse at 20° C.-25° C. and 50-60% relative humidity.
After the specified period of time the mortality in % is determined and the rate of death is calculated according to the following scheme/criteria: […]

[2] = tested on: Frankliniella occidentalis; test: Frankliniella occidentalis spray test (FRANOC); conditions: 0.16 ppm, 7 dat
Experimental: (§1) After the specified period of time mortality in % is determined according to the following criteria: • 1 larva dead: 20% Efficacy • 5 larvae dead: 100% Efficacy Frankliniella occidentalis—Spray-Test (FRANOC)
Insect: Frankliniella occidentalis from own culture
Plant: Cucumber seedlings, cotyledon stage
(§2) Solvent pre-mixture: Sorpol® SD: Sorpol® BDB:Dimethylformamide=3:3:14
(§3) 10 mg a i. is solved with 0.05 ml solvent pre-mixture.
(§4) Water for dilution contains RME and AS (1000 ppm each) or 0.1% of spreader. Solutions are diluted at the rate of 1:5 for limit concentration determination.
Procedure: The solution is sprayed to a cucumber seedling. After drying, the plant is placed in a plastic stand. About fifty 1st-instar larvae were inoculated to the plant and covered with a cage. The plant is stored at 25° C.
After the specified period of time % efficacy is determined by rating feeding damages on the plant according to the following criteria: […]

[3] = tested on: Aulacophora femoralis 2nd instar larvae; test: Aulacophora femoralis spray test (AUACFE); conditions: 0.8 ppm, 6 dat, rating scheme b297
Experimental: Aulacophora femoralis—Spray Test (AUACFE)
Insect: Aulacophora femoralis 2nd instar larvae from own culture;
Material: PET cups with 5 ml soil and A-PET lids
Plant: Cucumber (Cucumis sativus var. Hanshiro), cotyledon stage; 1 plant per pot;
Solvent pre-mixture: Sorpol® SD: Sorpol® BDB:Dimethylformamide=3:3:14;
10 mg a.i. solved with 0.05 ml solvent pre-mixture. Water for dilution contains RME and AS (1000 ppm each) or 0.1% of spreader. Solutions are diluted at the rate of 1:5 for limit concentration determination.
Procedure: Solutions are sprayed onto a plant. After drying, plants are cut and put on the soil in the testing cup. Five larvae L2 are released into each testing cup.
The testing cup is covered with the lid and stored at 25° C. and 50-60% r.h., 16L8D lighting conditions.
After the specified period of time, the mortality in % is determined according to the following scheme/criteria: […]

Adoxophyes honmai = Adoxophyes honmai test (ADXPFA), treated artificial diet; conditions: 0.8 ppm, 2 dat
Experimental: Procedure: Broccoli seedlings of 4-5 leaf stage planted in a vinyl pot (9 cm diameter) are sprayed with the solution. After drying half of the leaves of the plants are cut and put into a A-PET cup. Ten larvae of Plutella xylostella L3 are released in the cup and the dish is placed at 25° C. After 4 days another half leaf is cut and added to the dish. After the specified period of time mortality in % is determined according to the figures of mortality used for evaluation. • 1 larva dead: 20% Efficacy • 5 larvae dead: 100% Efficacy Adoxophyes honmai—Test (ADXPFA)
Insect: Adoxophyes honmai from own culture
Material: 1 A-PET cup with lid
Food agent: 4.5 g of artificial diet powder Silkmate-Kantan-3®
as §2
10 mg a i. is solved with 0.05 ml solvent pre-mixture. Water for dilution contains RME and AS (1000 ppm each) or 0.1% of spreader. Solutions are diluted at the rate of 1:5 for limit concentration determination.
Procedure: 4.5 g of artificial diet powder is put into a PET cup (10 cm diameter, 5 cm depth). The powder was leveled to make a layer in the bottom of the cup. […]
as §1

Panonychus citri = Panonychus citri spray test (METTCI); conditions: 4 ppm, 7 dat, rating scheme b306
Experimental: Panonychus citri—Spray Test (METTCI)
Plant: Citrus plants, ca 8 cm height
as §2, §3, §4
Procedure: 1 day before treatment mites were inoculated onto potted citrus plants, about 50 adults and some nymphs for 1 pot. The test solution is sprayed directly onto both mites and plants. After drying pots are stored at 25° C.
After the specified period of time mortality in % is determined by rating according to the following scheme/criteria.

[4] = tested on: Nephotettix cincticeps-MR, resistant strain, 3rd-4th instar nymphs; test: Nephotettix cincticeps spray test (NEPHCI); conditions: 20 ppm, 7 dat
Experimental: Nephotettix cincticeps-Spray Test (NEPHCl)
Insect: Nephotettix cincticeps-MR, resistant strain, 3rd-4th instar nymphs from own culture
Plant: Rice seedlings (Oryza sativa var. Tamanishiki)
Material: ST-method container (200 ml desiccant polystyrene bottle) with a hole in the bottom sealed with metal mesh. The lid has a pit inside to keep desiccant, and it is used to sow rice seeds. The bottle is used upside down as “cover”, the lid with seedling is called “base”. Plastic stand-board with magnet labels to line the ST Bases up (“Stand”)
Solvent pre-mixture: Sorpol® SD: Sorpol® BDB:Dimethylformamide=3:3:14 10 mg a i. is solved with 0.05 ml solvent pre-mixture. Water for dilution contains RME and AS (1000 ppm each) or 0.1% of spreader. Solutions are diluted at the rate of 1:5 for limit concentration determination.
Procedure: On a pit in the center of a base (originally the desiccant space) pieces of paper towel are placed. 20-30 germinated rice seeds are sown on the paper and moistened with water. The base is covered with a plastic cup and kept in an incubator at 30° C. for five days.
The base with rice seedlings is placed on the Stand. Each base is sprayed with the solution.
After drying twelve 3rd-4th instar nymphs of Nephotettix cincticeps-MR are put on the base and confined with the cover. The ST containers on the Stands are kept in the testing room at 25° C. and 50-60% r.h., 16L8D lighting conditions.
After the specified period of time mortality in % is determined by rating according to the following scheme/criteria: Counting living moving insects, calculate mortality in % by the formula: […]

[5] = tested on: Bemisia tabacii biotype B; test: Bemisia tabacii spray test (BEMIAR); conditions: 100 ppm, 14 dat, rating scheme b324
Experimental: Bemisia tabacii—Spray-Test (BEMIAR)
Insect: Bemisia tabacii biotype B
Plant: Tomato seedlings, 5 leaf stage in vinyl pots of 40 mm diameter
as §2
10 mg a.i. is solved with 0.05 ml solvent pre-mixture. Water for dilution contains RME and AS (1000 ppm each) or 0.1% of spreader. Solutions are diluted at the rate of 1:5 for limit concentration determination.
Procedure: Solutions are sprayed to the plants. After drying treated pots are placed in the greenhouse where breeding BEMIAR for an infection-time of 24 h. Then the plants is placed in the testing room at 25° C. and 50-60% r.h., 16L8D lighting conditions.
After the specified period of time mortality in % is determined according to the following scheme/criteria: […]

In the case of “4-{3-[3,5-Bis(trifluoromethyl)phenyl]-3-(trifluoromethyl)-3,4-dihydro-2H-pyrrol-5-yl}-2-methyl-N-(thietan-3-yl)benzamide [Compound 1-19]”, the “Efficacy/day(s) of treatment” value [1] was 90%/6 dat, the “Efficacy/day(s) of treatment” value ([1]; rating scheme) was 98%/6 dat and the “Efficacy/day(s) of treatment” value [2] was 98%/7 dat. The “Efficacy/day(s) of treatment” value [3] was 100%/6 dat, the “Efficacy/day(s) of treatment” value (Adoxophyes honmai) was 60%/2 dat and the “Efficacy/day(s) of treatment” value (Panonychus citri) was 60%/7 dat. The “Efficacy/day(s) of treatment” value [4] was 20%/7 dat and 80%/7 dat and the “Efficacy/day(s) of treatment” value [5] was 100%/14 dat.
Cc1cc(C2=NOC(c3cc(C(F)(F)F)cc(C(F)(F)F)c3)(C(F)(F)F)C2)ccc1C(=O)NC1C[S+]([O-])C1 (stereo not drawn) [ExNo A-23 of WO 2009/080250, reference compound] was tested, and the “Efficacy/day(s) of treatment” value [1] was 60%/6 dat, the “Efficacy/day(s) of treatment” value [2] was 60%/7 dat and the “Efficacy/day(s) of treatment” value (Adoxophyes honmai) was 40%/2 dat. The “Efficacy/day(s) of treatment” value [4] was 40%/7 dat.
